Results reported in US20220127297A1, “Novel Antibacterial 3"-Derivatives Of 4,6-Disubstituted 2,5-Dideoxystreptamine Aminoglycoside Antibiotics” (AGILeBiotics B.V., priority 2018, published 2022).
In brackets after ≈: the same amount, converted by molar mass.

What was measured:
E. coli (APH(3′)IIIa) = test: MIC 50, broth micro-dilution, E. coli expressing APH(3′)IIIa; assay type: cell-based, Escherichia coli
Description: (§1) Plasmid transformation. Approximately 500 ng of the pET-9b(+) (Cat. No. 69432-3, Merck), pAT21-1 (provided by Prof. Dr. Patrice Courvalin, M.D., Pasteur Institute, France; prepared according to Trieu-Cuot et. al, Mol. Gen. Genet. 198(2), 348 (1985)), pBluescript::AAC(6′)-Ie/APH(2″)-Ia (provided by Prof. Dr. Sergei Vakulenko, M.D., University of Notre Dame, Ind., USA; prepared according to S. B. Vakulenko et. al., J. Biol. Chem. 287 (52), 43262 (2012)), pBlue_lpp_aacC3_rrnC and pSET152 (Cat. No. PVT3395, Life Science Market; prepared according to Bierman et al., Gene 116 (1), 43 (1992)) plasmids, encoding APH(3′)-Ia (SEQ ID NO:2), APH(3′)-IIIa (SEQ ID NO:3), AAC(6′)Ie-APH(2″)-Ia (SEQ ID NO:4), AAC(3)-III (SEQ ID NO:1), and AAC(3)-IV (SEQ ID NO:5) respectively, were individually incubated in a vial of competent cells for 15 min on ice. The cells were subsequently heated to 42° C. for 90 s, and cooled on ice for 1 min. After addition of 900 μL LB, the cells were incubated for 1 h at 37° C. and 200 rpm. Cells were plated on LB-agar supplemented with 50 μg/mL KanaA and incubated for 18 h at 37° C. The next day, a single colony was inoculated in 5 mL LB supplemented with 50 μg/mL and grown for 18 h at 37° C. and 200 rpm. A 200 μL sample of each culture was diluted with 200 μL of 40% v/v glycerol in water, and stored at −80° C. The plasmid was purified from the remaining culture using the Plasmid Miniprep kit. Plasmid DNA was investigated by Eurofins Genomics (Germany) to confirm the identity of the aminoglycoside resistance genes.
(§2) 3.1 Against E. coli Strains
(§3) Tested reference compounds. Amikacin sulfate (Cat. No. 01693, Chem-Impex), Gentamicin sulfate (Cat. No. G4918, Sigma Aldrich).
(§4) Microbial strains. E. coli ATCC 25922, E. coli ATCC 25922/pET-9b(+), E. coli ATCC 25922/pAT21-1, E. coli ATCC 25922/pBluescript::AAC(6′)-Ie/APH(2″)-Ia, E. coli ATCC 25922/pBlue_lpp_aacC3_rrnC, E. coli ATCC 25922/pSET152.
(§5) Culture media and equipment. BBL™ Mueller Hinton Broth 2 (Lot. BCBW1143, Cat. No. 70192, Sigma); Kanamycin A (Cat. No. A1493, AppliChem); 96-well deep well plate, 1 mL (Cat. No. 0030506.200, Eppendorf); Plate lids (Cat. No. 0030131.525, Eppendorf); 96-well plate, F-bottom (Cat. No. 781602, Brand; Incubator, Infors Multitron Pro); Laminar flow (Heraeus KS12); UV/VIS meter (Eppendorf BioPhotometer Plus); Platereader (Tecan Sunrise).
(§6) Compound preparation. Compounds were prepared in MH2 media at a concentration of 5 mM and stored at 4° C. For testing, solutions of 128 μM were prepared in MH2. Out of these working solutions, 400 μL was transferred to wells in the first column of 96-well deep well plates. Each compound was transferred in triplicate. Plates were previously filled with 200 μL of MH2 media in all wells except for the wells in the first column. After compound and antibiotic addition, the compounds were serial two-fold diluted by transferring 200 μL from the first to the second column, then from the second to the third column and so on. Finally, 200 μL was removed from the last column.
(§7) Inoculum preparation. Microorganisms used were all revived from 20% glycerol (40% v/v glycerol in water was diluted with MH2) storage at −80° C. by inoculating them in 5 mL MH2. inoculums of E. coli containing a plasmid were selected for by adding 50 μg/mL KanaA. The Inoculums were grown to an optical density (measured by UV/Vis spectroscopy) of 0.6-0.8 at 600 nm. Out of these suspensions, actual inoculums were prepared by diluting them to an optical density (OD) of 0.1 in MH2 media. From these inoculums, 200 μL was transferred to each well, resulting in a final compound concentration range of 64 μM-31.3 nM. All plates were incubated at 900 rpm and 70% rH for 18 h at 37° C.
(§8) MIC determination. After 18 h of growth, 200 μL was transferred to a 96-well F-bottom plate. The optical density was determined by a plate reader at 600 nm, with 10 s shaking before reading. Triplicate measurements were averaged, and a growth curve was plotted in Microsoft Excel. […]

E. coli (AAC(3)IV) = test: MIC 50, broth micro-dilution, E. coli expressing AAC(3)IV; assay type: cell-based, Escherichia coli
Description: as §1, §2, §3, §4, §5, §6, §7, §8

[1] = ATCC25922 harboring plasmid encoding APH(3′)IIIa
[2] = ATCC25922 harboring plasmid encoding AAC(3)IV
[3] = Escherichia coli, ATCC25922, ATCC25922 harboring plasmid encoding APH(3′)IIIa
[4] = Escherichia coli, ATCC25922, ATCC25922 harboring plasmid encoding AAC(3)IV

| SMILES | MIC50 (E. coli (APH(3′)IIIa); [1]) [µM] | MIC50 (E. coli (AAC(3)IV); [2]) [µM] | MIC50 (E. coli (APH(3′)IIIa); [3]) [µM] | MIC50 (E. coli (AAC(3)IV); [4]) [µM] |
| --- | --- | --- | --- | --- |
| NCC[C@H](O)C(=O)N[C@@H]1C[C@H](N)[C@@H](O[C@H]2O[C@H](CN)[C@@H](O)[C@@H](O)[C@H]2O)[C@H](O)[C@H]1O[C@H]1O[C@H](CO)[C@@H](O)[C@H](N)[C@H]1O [ABX3002, 3′Epi-KanaA-AHB] | 16 to 32 | 32 (≈ 18.7 µg/mL) |  |  |
| N=C(N)NC1[C@@H](O)C(OC2[C@@H](F)[C@H](O[C@H]3OC(CN)[C@@H](O)[C@H](O)C3O)C(N)C[C@H]2NC(=O)[C@@H](O)CCN)O[C@H](CO)[C@H]1O (stereo partly drawn) [ABX3003, 3′epi-KanaA-AHB-F-Gua] |  |  | 2 (≈ 1.26 µg/mL) | 4 (≈ 2.52 µg/mL) |
| NCCC(O)C(=O)NC1CC(N)C(OC2OC(CN)C(O)C(O)C2O)C(F)C1OC1OC(CO)C(O)C(N)C1O (stereo not drawn) [ABX3005, 3′Epi-KanaA-AHB-F] | 4 to 8 | 8 to 16 |  |  |
| NCCC(O)C(=O)NC1CC(N)C(OC2OC(CN)C(O)C(O)C2N)C(O)C1OC1OC(CO)C(O)C(N)C1O (centres unmarked) [ABX4001, KanaB-AHB] | 8 to 16 | 4 (≈ 2.34 µg/mL) |  |  |
| NCC[C@H](O)C(=O)N[C@@H]1CC(N)[C@@H](O[C@H]2OC(CN)[C@@H](O)[C@@H](O)C2N)[C@H](O)C1OC1O[C@H](CO)[C@@H](O)C(N)[C@H]1O (stereo partly drawn) [ABX4002, 3′Epi-KanaB-AHB] | 8 (≈ 4.68 µg/mL) | 8 to 16 |  |  |
| NCC[C@H](O)C(=O)N[C@@H]1CC(N)[C@@H](O[C@H]2OC(CN)[C@@H](O)[C@@H](O)C2N)[C@H](F)C1OC1O[C@H](CO)[C@@H](O)C(N)[C@H]1O (stereo partly drawn) [ABX4003, 3′Epi-KanaB-AHB-F] | 8 (≈ 4.69 µg/mL) | 8 to 16 |  |  |
| N=C(N)NC1[C@@H](O)C(OC2[C@@H](F)[C@H](O[C@H]3OC(CN)[C@@H](O)[C@H](O)C3N)C(N)C[C@H]2NC(=O)[C@@H](O)CCN)O[C@H](CO)[C@H]1O (stereo partly drawn) [ABX4004, 3′epi-KanaB-AHB-F-Gua] | 1 to 2 | 4 (≈ 2.51 µg/mL) |  |  |
| N=C(N)N[C@@H]1[C@@H](O)[C@@H](O[C@@H]2[C@@H](O)[C@H](O[C@H]3O[C@H](CN)[C@@H](O)[C@@H](O)[C@H]3N)[C@@H](N)C[C@H]2NC(=O)[C@@H](O)CCN)O[C@H](CO)[C@H]1O [ABX4005, 3′Epi-KanaB-AHB-Gua] | 8 to 16 | 16 (≈ 10 µg/mL) |  |  |
| N=C(N)NC1[C@@H](O)C(OC2[C@@H](F)[C@H](O[C@H]3OC(CN)[C@@H](O)[C@H](O)C3N)C(N)C[C@H]2NC(=O)[C@@H](O)CCN)O[C@H](CO)[C@H]1O (some centres unmarked) [ABX4006, KanaB-AHB-F-Gua] | 4 to 8 |  |  | 2 (≈ 1.26 µg/mL) |
| NCCC(O)C(=O)NC1CC(N)C(OC2OC(CN)C(O)C(O)C2N)C(F)C1OC1OC(CO)C(O)C(N)C1O (centres unmarked) [ABX4007, KanaB-AHB-F] | 16 (≈ 9.39 µg/mL) | 4 to 8 |  |  |
| N=C(N)NC1[C@@H](O)C(OC2[C@@H](O)[C@H](O[C@H]3OC(CN)[C@@H](O)[C@H](O)C3N)C(N)C[C@H]2NC(=O)[C@@H](O)CCN)O[C@H](CO)[C@H]1O (some centres unmarked) [ABX4009, KanaB-AHB-Gua] | 64 (≈ 40.1 µg/mL) | 8 (≈ 5.01 µg/mL) |  |  |
| NCC[C@H](O)C(=O)N[C@@H]1CC(N)[C@@H](O[C@H]2OC(CN)[C@@H](O)CC2N)[C@H](O)C1OC1O[C@H](CO)[C@@H](O)C(N)[C@H]1O (some centres unmarked) [ABX5004, Tobra-AHB] | 4 to 8 | 4 (≈ 2.27 µg/mL) |  |  |
| N=C(N)NC1[C@@H](O)C(OC2[C@@H](O)[C@H](O[C@H]3OC(CN)[C@@H](O)CC3N)C(N)C[C@H]2NC(=O)[C@@H](O)CCN)O[C@H](CO)[C@H]1O (some centres unmarked) [ABX5005, Tobra-AHB-Gua] | 2 to 4 | 1 to 2 |  |  |
| N=C(N)NC1C(O)[C@@H](CO)OC(OC2C(F)[C@H](O[C@H]3OC(CN)[C@@H](O)CC3N)C(N)C[C@H]2NC(=O)[C@@H](O)CCN)[C@@H]1O (some centres unmarked) [ABX5006, Tobra-AHB-F-Gua] |  |  | < 0.25 | 0.5 to 1 (≈ 0.306 to 0.613 µg/mL) |
| N=C(NCCN)NC1C(O)[C@@H](CO)OC(OC2C(F)[C@H](O[C@H]3OC(CN)[C@@H](O)CC3N)C(N)C[C@H]2NC(=O)[C@@H](O)CCN)[C@@H]1O (some centres unmarked) [ABX5020, Tobra-AHB-F-Gua-2-amino-ethyl] |  |  | 0.5 (≈ 0.328 µg/mL) | 1 (≈ 0.656 µg/mL) |
| NCC[C@H](O)C(=O)N[C@@H]1CC(N)[C@@H](O[C@H]2OC(CN)[C@@H](O)CC2N)[C@H](F)C1OC1O[C@H](CO)[C@@H](O)C(N)[C@H]1O (some centres unmarked) [ABX5024, Tobra-AHB-F] | 1 (≈ 0.571 µg/mL) | 2 (≈ 1.14 µg/mL) |  |  |
| CC(C)(C)CCNC(=N)NC1[C@@H](O)C(OC2[C@@H](F)[C@H](O[C@H]3OC(CN)[C@@H](O)CC3N)C(N)C[C@H]2NC(=O)[C@@H](O)CCN)O[C@H](CO)[C@H]1O (some centres unmarked) [ABX5025, Tobra-AHB-F-Gua 2-tBu-ethyl] |  |  |  | 2 (≈ 1.39 µg/mL) |
| N=C(NC[C@@H]1CCCN1)NC1[C@@H](O)C(OC2[C@@H](F)[C@H](O[C@H]3OC(CN)[C@@H](O)CC3N)C(N)C[C@H]2NC(=O)[C@@H](O)CCN)O[C@H](CO)[C@H]1O (stereo partly drawn) [ABX5026, Tobra-AHB-F-Gua (S) pyrrolidine-2-yl-methyl] |  |  | 0.25 (≈ 0.174 µg/mL) | 0.5 (≈ 0.348 µg/mL) |
| N=C(NCC1CC1)NC1[C@@H](O)C(OC2[C@@H](F)[C@H](O[C@H]3OC(CN)[C@@H](O)CC3N)C(N)C[C@H]2NC(=O)[C@@H](O)CCN)O[C@H](CO)[C@H]1O (some centres unmarked) [ABX5027, Tobra-AHB-F-Gua cyclopropylmethyl] |  |  | 0.25 to 0.5 (≈ 0.167 to 0.333 µg/mL) | 2 (≈ 1.33 µg/mL) |
| N=C(NCCO)NC1[C@@H](O)C(OC2[C@@H](F)[C@H](O[C@H]3OC(CN)[C@@H](O)CC3N)C(N)C[C@H]2NC(=O)[C@@H](O)CCN)O[C@H](CO)[C@H]1O (some centres unmarked) [ABX5029, Tobra-AHB-F-Gua 2-hydroxy-ethyl] |  |  | 0.5 (≈ 0.328 µg/mL) | 2 (≈ 1.31 µg/mL) |
| N=C(NCCCN)NC1[C@@H](O)C(OC2[C@@H](F)[C@H](O[C@H]3OC(CN)[C@@H](O)CC3N)C(N)C[C@H]2NC(=O)[C@@H](O)CCN)O[C@H](CO)[C@H]1O (some centres unmarked) [ABX5030, Tobra-AHB-F-Gua-3-amino-propyl] |  |  | 0.25 (≈ 0.167 µg/mL) | 0.5 (≈ 0.335 µg/mL) |
| CNCCNC(=N)NC1[C@@H](O)C(OC2[C@@H](F)[C@H](O[C@H]3OC(CN)[C@@H](O)CC3N)C(N)C[C@H]2NC(=O)[C@@H](O)CCN)O[C@H](CO)[C@H]1O (some centres unmarked) [ABX5038, Tobra-AHB-F-Gua 2-(methylamino)ethyl] |  |  | 0.25 (≈ 0.167 µg/mL) | 1 (≈ 0.67 µg/mL) |
| N=C(NC[C@@H]1CCNC1)NC1[C@@H](O)C(OC2[C@@H](F)[C@H](O[C@H]3OC(CN)[C@@H](O)CC3N)C(N)C[C@H]2NC(=O)[C@@H](O)CCN)O[C@H](CO)[C@H]1O (stereo partly drawn) [ABX5039, Tobra-AHB-F-Gua (R) pyrrolidine-3-ylmethyl] |  |  | 0.25 (≈ 0.174 µg/mL) | 1 (≈ 0.696 µg/mL) |
| N=C(NC[C@@H]1CNCCO1)NC1[C@@H](O)C(OC2[C@@H](F)[C@H](O[C@H]3OC(CN)[C@@H](O)CC3N)C(N)C[C@H]2NC(=O)[C@@H](O)CCN)O[C@H](CO)[C@H]1O (stereo partly drawn) [ABX5040, Tobra-AHB-F-Gua (S) morpholin-2-yl methyl] |  |  | 0.25 (≈ 0.178 µg/mL) | 1 (≈ 0.712 µg/mL) |
